Measurements taken from patent publication US20240216401A1, “COMBINATION THERAPY BY USING AKR1C3-ACTIVATED COMPOUND WITH IMMUNE CHECKPOINT INHIBITOR” (OBI Pharma, Inc., priority 2021, published 2024).
“And” between values parts separate entries of the source, which are not always exact repeats. Identical values can stand only once.

Experiments:
[1] = test system: CTL cells (CD45^+CD8^+ T cells) in tumor-infiltrating lymphocytes; assay: Example 2: flow cytometry, percentage of CTL cells in TILs; format: in vivo, Mus musculus; settings: G3: 1 mg/kg
Protocol: Mice were sacrificed by CO2 euthanasia at the end of the study duration, and the connective tissue around tumor was resected. The tumor samples were then weighed and cut equally into three sections if the tumor weight over 400 mg. The tumor tissue was prepared for the isolation of tumor-infiltrating lymphocytes (TILs). The rest of one section was fixed in 10% formaldehyde and embedded in paraffin; the other was stored at a temperature below −70° C.
The tumor samples were dissected into smaller fragments using scalpels and then digested with a cocktail of collagenase, DNase I, and Hyaluronidase (Collagenase #C5138, DNase I #D5025, Hyaluronidase #H6254, SigmaAldrich) for at least 2 hours.
Cells were stained with the fluorescently conjugated surface antibodies and incubated for 30 minutes at 4° C., and then resuspended in staining buffer for flow cytometric analysis. Flow cytometry was done using a Navios EX Flow Cytometer (Beckman Coulter). Data were analyzed using the Kaluza Analysis Software (Beckman Coulter).

[2] = test system: preclinical models of T-ALL; settings: in vitro and in vivo; references 25, 26; cited from earlier work
[3] = Example 2: body weight of HepG2 tumor bearing humanized mice; format: in vivo, Mus musculus; settings: for Body Weight: individual animal; for Body Weight (g) Mean: group mean
Protocol: 1. Species: Mus musculus • Strain: Advanced immunodeficiency mouse. • (NOD.CgPrkdc^scid Il2rg) • Source: Trineo Biotechnology Co., LTD.
Each group contains six mice. The human hepatocellular carcinoma cell line HepG2 were subcutaneously inoculated to the advanced immune-deficiency mice. Total of 42 mice were included in this study.
3.1. […] The injection was performed using insulin syringe with the dosage of 0.3 mg/kg or 1 mg/kg and the injection volume was 5 mL/kg. […] The reference item was administered for G1. The procedure followed the standards of sample administration. The starting day of test item administration was denoted as the first experimental day (DO).
3.2. […] The injection was performed using insulin syringe with the dosage of 20 mg/kg and injection volume of 10 mL/kg. […] The procedure followed the standards of sample administration.
The measurement was performed from the next day of the inoculation. The animal body weights were measured and recorded twice per week.

C[C@H](OP(=O)(N1CC1)N1CC1)c1ccc([N+](=O)[O-])c(Oc2cccc(C(=O)N(C)C)c2)c1 [OBI-3424, (S)-1-(3-(3-N,N-dimethylaminocarbonyl)phenoxyl-4-mtrophenyl)-1-ethyl-N,N′-bis(ethylene)phosphoramidate]
IFN-γ^+ CTL cells (CD45^+ CD8^+ IFN-γ^+) CTL Gated % ([1]; group mean): 0.63% | IFN-γ^+ CTL cells (CD45^+ CD8^+ IFN-γ^+) Cell count (×10^5) ([1]; group mean): 0.15 ×10^5 | IFN-γ^+ CTL cells (CD45^+ CD8^+ IFN-γ^+) Total % ([1]; group mean): 0.21% | PD-1^+ CTL cells (CD45^+CD8^+ PD-1^+) CTL Gated % ([1]; group mean): 75.93% | PD-1^+ CTL cells (CD45^+CD8^+ PD-1^+) Cell count (×10^5) ([1]; group mean): 19.17 ×10^5 | PD-1^+ CTL cells (CD45^+CD8^+ PD-1^+) Total % ([1]; group mean): 24.78% | CD25^+ CTL cells (CD45^+ CD8^+CD25^+) Cell count (×10^5) ([1]; individual mice): 0.43 ×10^5 and 1.29 ×10^5 and 0.89 ×10^5 and 1.55 ×10^5 and 1.91 ×10^5 and 1.90 ×10^5 | CD25^+ CTL cells (CD45^+CD8^+ CD25^+) CTL Gated % ([1]; individual mice): 3.38% and 2.85% and 4.07% and 7.29% and 6.05% and 7.84% | CD25^+ CTL cells (CD45^+CD8^+ CD25^+) Total % ([1]; individual mice): 1.49% and 1.02% and 1.26% and 1.57% and 2.57% and 2.34% | CD69^+ CTL cells (CD45^+ CD8^+CD69^+) CTL Gated % ([1]; individual mice): 80.80% and 70.50% and 83.69% and 59.32% and 76.33% and 60.89% | CD69^+ CTL cells (CD45^+ CD8^+CD69^+) Cell count (×10^5) ([1]; individual mice): 10.34 ×10^5 and 31.84 ×10^5 and 18.33 ×10^5 and 12.61 ×10^5 and 24.09 ×10^5 and 14.69 ×10^5 | CD69^+ CTL cells (CD45^+ CD8^+CD69^+) Total % ([1]; individual mice): 35.67% and 25.23% and 25.96% and 12.76% and 32.38% and 18.14% | CTL cells (CD45^+CD8^+) CD45^+ Gated % ([1]; individual mice): 66.02% and 53.39% and 62.97% and 38.03% and 65.33% and 49.11% | CTL cells (CD45^+CD8^+) Cell count (×10^5) ([1]; individual mice): 12.68 ×10^5 and 40.30 ×10^5 and 21.83 ×10^5 and 22.61 ×10^5 and 32.02 ×10^5 and 23.10 ×10^5 | CTL cells (CD45^+CD8^+) Total % ([1]; individual mice): 31.93% and 30.92% and 22.88% and 43.04% and 28.52% | Granzyme B^+ CTL cells (CD45^+ CD8^+GrB+) CTL Gated % ([1]; individual mice): 90.46% and 99.18% and 89.16% and 96.01% and 95.94% and 58.25% | Granzyme B^+ CTL cells (CD45^+ CD8^+GrB+) Cell count (×10^5) ([1]; individual mice): 11.76 ×10^5 and 39.25 ×10^5 and 20.44 ×10^5 and 21.59 ×10^5 and 31.75 ×10^5 and 14.00 ×10^5 | Granzyme B^+ CTL cells (CD45^+ CD8^+GrB+) Total % ([1]; individual mice): 40.55% and 31.10% and 28.95% and 21.85% and 17.29% | IFN-γ^+ CTL cells (CD45^+ CD8^+ IFN-γ^+) CTL Gated % ([1]; individual mice): 0.87% and 0.63% (2×) and 0.85% and 0.20% and 0.61% | IFN-γ^+ CTL cells (CD45^+ CD8^+ IFN-γ^+) Cell count (×10^5) ([1]; individual mice): 0.11 ×10^5 and 0.25 ×10^5 and 0.20 ×10^5 and 0.1 ×10^5 and 0.07 ×10^5 and 0.15 ×10^5 | IFN-γ^+ CTL cells (CD45^+ CD8^+ IFN-γ^+) Total % ([1]; individual mice): 0.39% and 0.20% and 0.28% and 0.14% and 0.09% and 0.18% | PD-1^+ CTL cells (CD45^+CD8^+ PD-1^+) CTL Gated % ([1]; individual mice): 58.64% and 62.98% and 80.96% and 86.30% and 72.97% and 93.75% | PD-1^+ CTL cells (CD45^+CD8^+ PD-1^+) Cell count (×10^5) ([1]; individual mice): 7.44 ×10^5 and 25.38 ×10^5 and 17.68 ×10^5 and 19.51 ×10^5 and 23.37 ×10^5 and 21.66 ×10^5 | PD-1^+ CTL cells (CD45^+CD8^+ PD-1^+) Total % ([1]; individual mice): 25.64% and 20.11% and 25.04% and 19.75% and 31.41% and 26.74% | efficacy against preclinical models of T-ALL (in words) [2]: potent efficacy | body weight (in words) ([3]; Example 2, until Day 30): Body weight loss was not seen | Body Weight ([3]; G2: OBI-3424 0.3 mg/kg, D2 after test item administration, 0.3 mg/kg): 22.12 g | Body Weight ([3]; G2: OBI-3424 0.3 mg/kg, D6 after test item administration, 0.3 mg/kg): 24.82 g | Body Weight ([3]; G2: OBI-3424 0.3 mg/kg, D9 after test item administration, 0.3 mg/kg): 20.84 g and 24.58 g | Body Weight ([3]; G2: OBI-3424 0.3 mg/kg, D13 after test item administration, 0.3 mg/kg): 23.96 g and 24.87 g | Body Weight ([3]; G2: OBI-3424 0.3 mg/kg, D16 after test item administration, 0.3 mg/kg): 24.02 g and 24.56 g and 24.17 g | Body Weight ([3]; G2: OBI-3424 0.3 mg/kg, D20 after test item administration, 0.3 mg/kg): 22.00 g and 24.21 g and 23.98 g | Body Weight ([3]; G2: OBI-3424 0.3 mg/kg, D23 after test item administration, 0.3 mg/kg): 23.98 g | Body Weight (g) Mean ([3]; G2: OBI-3424 0.3 mg/kg, D30 after test item administration): 22.06 g | Body Weight ([3]; G2: OBI-3424 0.3 mg/kg, D30 after test item administration, 0.3 mg/kg): 20.17 g and 21.65 g | Body Weight ([3]; G2: OBI-3424 0.3 mg/kg, L0 after tumor cell injection, 0.3 mg/kg): 20.66 g and 23.04 g and 25.00 g | Body Weight ([3]; G2: OBI-3424 0.3 mg/kg, L1 after tumor cell injection, 0.3 mg/kg): 23.02 g | Body Weight (g) Mean ([3]; G2: OBI-3424 0.3 mg/kg, L3 after tumor cell injection): 22.99 g | Body Weight ([3]; G2: OBI-3424 0.3 mg/kg, L7 after tumor cell injection, 0.3 mg/kg): 23.01 g | Body Weight ([3]; G3: OBI-3424 1 mg/kg, D2 after test item administration, 1 mg/kg): 20.20 g and 24.22 g | Body Weight ([3]; G3: OBI-3424 1 mg/kg, D6 after test item administration, 1 mg/kg): 24.90 g | Body Weight ([3]; G3: OBI-3424 1 mg/kg, D9 after test item administration, 1 mg/kg): 22.01 g and 24.85 g | Body Weight ([3]; G3: OBI-3424 1 mg/kg, D13 after test item administration, 1 mg/kg): 25.97 g | Body Weight ([3]; G3: OBI-3424 1 mg/kg, D20 after test item administration, 1 mg/kg): 24.21 g and 25.53 g and 21.98 g | Body Weight (g) Mean ([3]; G3: OBI-3424 1 mg/kg, D23 after test item administration): 24.04 g | Body Weight ([3]; G3: OBI-3424 1 mg/kg, D23 after test item administration, 1 mg/kg): 23.02 g and 25.37 g | Body Weight ([3]; G3: OBI-3424 1 mg/kg, D30 after test item administration, 1 mg/kg): 22.02 g | Body Weight ([3]; G3: OBI-3424 1 mg/kg, L0 after tumor cell injection, 1 mg/kg): 19.46 g | Body Weight ([3]; G3: OBI-3424 1 mg/kg, L3 after tumor cell injection, 1 mg/kg): 20.70 g and 24.21 g and 20.80 g and 24.01 g | Body Weight ([3]; G3: OBI-3424 1 mg/kg, L7 after tumor cell injection, 1 mg/kg): 24.22 g and 25.55 g
